Assays:
headache = experiment: Topical NSAID formulations in treatment of headache (inventors' observation); type: in vivo, human; conditions: topically applied to tender spot or area superficial to carotid, temporal and/or vertebral artery
Excerpt: Especially preferred compositions include a xanthine derivative in a concentration of about 4% (wt) to 70% (wt) and ketoprofen in a concentration of about 0.5% (wt) to 50% (wt). With respect to the xanthine derivative, the same considerations as described above apply. Furthermore, such particularly preferred compositions may be formulated in a lecithin-containing formulation or a pluronic-lecithin-organogel formulation (supra). It should be especially recognized, that compositions including a xanthine derivative or an NSAID have generally been described in the art. However, the inventors observed that formulations including an NSAID other than Ketoprofen generally fail to provide relief in treatment of a headache, when topically applied to a person (either to a tender spot, or to an area superficial to a carotid artery, a temporal artery and/or a vertebral artery). […] While not wishing to be bound by a particular hypothesis or theory, the inventors contemplate that the effect of Ketoprofen may be at least in part mediated by a muscle-relaxant effect rather than via a suppressive effect in inflammation.

fever = conditions: oral delivery; cited from earlier work

Compound: CC(C(=O)O)c1cccc(C(=O)c2ccccc2)c1 (centres unmarked) [Ketoprofen, 2-(meta-benzoylphenyl)propionic acid]
- relief in treatment of a headache (headache): the only NSAID effective in treatment of a headache

Compound: CC(=O)Nc1ccc(O)cc1 [acetaminophen, Acetaminophen]
- time to achieve sufficient concentration in the plasma to lower the fever (fever): at least 20 minutes
